Experimental data published in article PMC8467340, “Fine Tuning of Cholinesterase and Glutathione-S-Transferase Activities by Organoruthenium(II) Complexes” (Biomedicines, 2021).
Where two headings read alike, the source gives them in different places.

Experiments:
horse liver GST (hlGST) [1] = assay: Glutathione S-transferase inhibition assay (Habig method), hlGST; type: biochemical; conditions: for IC50: mean ± SEM of three independent measurements, / = No activity, read-out: Enzyme Inhibition hlGST IC50; for type of inhibition of hlGST: Dixon plots; for Ki: determined for compounds with IC50 < 33 μM, substrate 200, 400, 800 μM, read-out: Enzyme Inhibition hlGST Ki
Protocol: (§1) The activities of the GSTs were determined according to the method described by Habig et al. (1974) using a cell imaging multi-mode reader (Cytation 3; BioTek, Winooski, VT, USA). The stock solutions of inhibitors were prepared as described for the ChE inhibition assays. Then the stock solutions of the potential inhibitors and negative controls were added to the wells, and progressively diluted in 100 mM sodium phosphate buffer (pH 6.5) to the final volume of 50 μL. 1-Chloro-2,4-dinitrobenzene (Sigma-Aldrich, St. Louis, MO, USA) was dissolved in ethanol to 50 mM, and then diluted with 100 mM sodium phosphate buffer (pH 6.5) to a final concentration of 4 mM. This solution (50 μL) and 2 mM reduced glutathione (100 μL) in the same buffer were added into the microtiter plate wells. Two GSTs were used as the enzyme sources: horse liver GST (hlGST) and human placenta GST (hGST) (Sigma-Aldrich, St. Louis, MO, USA). These were dissolved in 100 mM sodium phosphate buffer (pH 6.5), and 50 μL of these enzyme solutions were added into the wells to start the reaction. The final enzyme concentration was 0.044 U/mL. The blank reactions without the inhibitors were run with the appropriate dilutions of the solvents in which the tested compounds were initially diluted (100% MeOH or 5% aqueous DMSO), and the readings were corrected according to the appropriate blanks. The reactions were followed spectrophotometrically at 340 nm at 25 °C over 4 min. Each measurement was repeated at least three times. […] The data were analysed using the OriginPro software (OriginPro 2020, OriginLab Corporation, Northampton, MA, USA).

[2] = target: T1, human placenta GST (hGST) (Homo sapiens, UniProt P09211); assay: Glutathione S-transferase inhibition assay (Habig method), hGST; type: biochemical; conditions: for IC50: mean ± SEM of three independent measurements, / = No activity, read-out: Enzyme Inhibition hGST IC50; for type of inhibition of hGST: Dixon plots; for Ki: determined for compounds with IC50 < 33 μM, substrate 200, 400, 800 μM, read-out: Enzyme Inhibition hGST Ki
T1 construct: human placenta GST (hGST); purchased Sigma-Aldrich; host or cells: human placenta
Protocol: as §1

[3] = target: T2, electric eel AChE (eeAChE) (Electrophorus electricus, UniProt O42275); assay: Cholinesterase inhibition assay (modified Ellman method), eeAChE; type: biochemical; conditions: for IC50: mean ± SEM of three independent measurements, / = No activity, read-out: Enzyme Inhibition eeAChE IC50; for type of inhibition of eeAChE: Dixon plots
T2 construct: purchased Sigma-Aldrich
Protocol: (§2) The activities of the ChEs were determined using a modification of the Ellman method adapted for microtiter plates, as described in [47]. Stock solutions of complexes 4, 5, 6, 7, 8 and 10, as well as of ligands L2 and L3 (1 mg/mL) were prepared in 100% MeOH, whereas stock solutions of complexes 2 and 3 (1 mg/mL) were prepared in 5% DMSO in deionised water. Positive control (1 mg/mL neostigmine bromide; Sigma-Aldrich, St. Louis, MO, USA) was also prepared in 100% MeOH. The stock solutions of the potential inhibitors and the positive and negative controls were added to the wells, and progressively diluted in 100 mM potassium phosphate buffer (pH 7.4) to the final volume of 50 μL. Then, 100 μL acetylthiocholine chloride (1 mM) and 5,5′-dithiobis-2-nitrobenzoic acid (0.5 mM) in 100 mM potassium phosphate buffer (pH 7.4) were added into the microtiter plate wells. Three ChEs were used as the enzyme sources: electric eel AChE (eeAChE); human recombinant AChE (hrAChE), and horse serum BChE (hsBChE) (all Sigma-Aldrich, St. Louis, MO, USA). These were dissolved in the same buffer to the final concentration of 0.0075 U/mL. Finally, 50 μL of each ChE solution was added into the microtiter plate wells to start the reaction, which was followed spectrophotometrically at 405 nm at 25 °C over 5 min using a kinetic microplate reader (Dynex Technologies Inc., Chantilly, VA, USA). The blank reactions without the inhibitors were run with the appropriate dilutions of the solvents in which the tested compounds were initially diluted (100% MeOH or 5% aqueous DMSO), and the readings were corrected according to the appropriate blanks. Each measurement was repeated at least three times. […] The data were analysed using the OriginPro software (OriginPro 2020, OriginLab Corporation, Northampton, MA, USA).

[4] = target: T3, horse serum BChE (hsBChE) (Equus caballus, UniProt P81908); assay: Cholinesterase inhibition assay (modified Ellman method), hsBChE; type: biochemical; conditions: for IC50: mean ± SEM of three independent measurements, / = No activity, read-out: Enzyme Inhibition hsBChE IC50; for type of inhibition of hsBChE: Dixon plots
T3 construct: horse serum BChE (hsBChE); purchased Sigma-Aldrich; host or cells: horse serum
Protocol: as §2

[5] = target: T4, human recombinant AChE (hrAChE) (Homo sapiens, UniProt P22303); assay: Cholinesterase inhibition assay (modified Ellman method), hrAChE; type: biochemical; conditions: for IC50: mean ± SEM of three independent measurements, / = No activity, read-out: Enzyme Inhibition hrAChE IC50; for type of inhibition of hrAChE: Dixon plots
T4 construct: purchased Sigma-Aldrich
Protocol: as §2

horse liver GST (hlGST) [6] = conditions: previously reported, cited from earlier work; for IC50: read-out: Enzyme Inhibition hlGST IC50
[7] = target: T3, horse serum BChE (hsBChE); conditions: previously reported; read-out: Enzyme Inhibition hsBChE IC50; cited from earlier work
[8] = target: T1, human placenta GST (hGST); conditions: previously reported; read-out: Enzyme Inhibition hGST IC50; cited from earlier work
[9] = target: T2, electric eel AChE (eeAChE); conditions: previously reported; read-out: Enzyme Inhibition eeAChE IC50; cited from earlier work
[10] = target: T4, human recombinant AChE (hrAChE); conditions: previously reported; read-out: Enzyme Inhibition hrAChE IC50; cited from earlier work

T3 sequence (P81908 whole entry): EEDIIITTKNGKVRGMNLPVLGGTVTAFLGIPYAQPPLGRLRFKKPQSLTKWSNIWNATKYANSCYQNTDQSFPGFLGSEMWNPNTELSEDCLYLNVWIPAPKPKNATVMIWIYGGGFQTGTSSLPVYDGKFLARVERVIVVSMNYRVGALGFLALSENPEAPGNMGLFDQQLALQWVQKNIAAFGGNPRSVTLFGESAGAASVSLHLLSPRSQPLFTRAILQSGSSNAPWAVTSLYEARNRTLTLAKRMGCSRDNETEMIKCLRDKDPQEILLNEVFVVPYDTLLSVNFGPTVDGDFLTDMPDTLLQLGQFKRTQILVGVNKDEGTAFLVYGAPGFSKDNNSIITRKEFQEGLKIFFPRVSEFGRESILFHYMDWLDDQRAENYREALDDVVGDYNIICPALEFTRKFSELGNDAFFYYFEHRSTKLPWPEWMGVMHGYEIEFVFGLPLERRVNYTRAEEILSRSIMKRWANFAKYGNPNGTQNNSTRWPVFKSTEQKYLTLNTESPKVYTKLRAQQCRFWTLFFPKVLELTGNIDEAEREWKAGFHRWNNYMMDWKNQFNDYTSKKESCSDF
T4 sequence (P22303 32-614): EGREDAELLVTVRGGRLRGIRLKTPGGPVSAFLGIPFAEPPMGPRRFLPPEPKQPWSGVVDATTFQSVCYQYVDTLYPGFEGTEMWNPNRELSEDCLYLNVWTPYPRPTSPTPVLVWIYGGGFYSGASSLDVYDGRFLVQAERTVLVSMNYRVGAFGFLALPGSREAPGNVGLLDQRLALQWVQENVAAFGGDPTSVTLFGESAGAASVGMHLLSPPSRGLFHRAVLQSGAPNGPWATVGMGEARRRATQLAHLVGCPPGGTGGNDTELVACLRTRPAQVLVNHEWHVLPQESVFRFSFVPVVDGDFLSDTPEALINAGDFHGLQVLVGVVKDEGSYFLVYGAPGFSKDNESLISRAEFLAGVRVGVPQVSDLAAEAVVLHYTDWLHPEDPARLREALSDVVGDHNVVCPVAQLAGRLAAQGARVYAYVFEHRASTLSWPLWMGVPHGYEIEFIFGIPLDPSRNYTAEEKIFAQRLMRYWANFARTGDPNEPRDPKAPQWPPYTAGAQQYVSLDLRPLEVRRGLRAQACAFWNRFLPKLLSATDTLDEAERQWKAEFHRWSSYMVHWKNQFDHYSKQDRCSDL
T1 sequence (P09211 2-210 limits assumed): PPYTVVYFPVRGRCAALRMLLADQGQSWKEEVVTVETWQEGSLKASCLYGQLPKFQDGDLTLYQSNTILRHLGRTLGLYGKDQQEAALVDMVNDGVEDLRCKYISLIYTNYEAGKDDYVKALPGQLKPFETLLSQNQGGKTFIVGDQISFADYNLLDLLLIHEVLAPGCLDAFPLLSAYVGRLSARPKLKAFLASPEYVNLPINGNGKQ
T2 sequence (O42275 24-633): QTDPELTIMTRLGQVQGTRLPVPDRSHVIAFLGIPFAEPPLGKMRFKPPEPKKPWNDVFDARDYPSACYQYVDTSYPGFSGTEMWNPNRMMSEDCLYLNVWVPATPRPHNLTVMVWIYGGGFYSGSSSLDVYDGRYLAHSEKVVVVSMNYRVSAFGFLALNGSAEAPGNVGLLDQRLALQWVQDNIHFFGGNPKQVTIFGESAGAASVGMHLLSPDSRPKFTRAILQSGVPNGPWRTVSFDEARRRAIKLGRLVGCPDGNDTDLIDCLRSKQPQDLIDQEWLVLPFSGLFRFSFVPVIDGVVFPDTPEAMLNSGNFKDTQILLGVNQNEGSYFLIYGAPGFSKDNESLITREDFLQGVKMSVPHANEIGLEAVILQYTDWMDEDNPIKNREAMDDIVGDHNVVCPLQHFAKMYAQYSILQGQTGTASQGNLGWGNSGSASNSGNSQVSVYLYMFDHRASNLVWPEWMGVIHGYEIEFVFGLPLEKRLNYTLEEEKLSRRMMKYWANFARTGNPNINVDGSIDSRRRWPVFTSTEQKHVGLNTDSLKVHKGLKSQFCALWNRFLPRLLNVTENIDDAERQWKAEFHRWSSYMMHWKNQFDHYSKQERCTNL

Compound | IC50 (horse liver GST (hlGST) [1]) | IC50 [2] | IC50 [3] | IC50 [4] | IC50 [5] | Ki (horse liver GST (hlGST) [1]) | further results
CN(C)C(=O)Oc1cccc([N+](C)(C)C)c1 [Neostigmine methylsulphate, reference compound] | > 100 µM | > 100 µM | 5.98 ± 1 µM | 92.7 ± 2.2 µM | – | – | –
O=C(CC(=O)C(F)(F)F)c1ccccc1Br [Complex L2, 1-(2-bromophenyl)-4,4,4-trifluorobutane-1,3-dione, reference compound] | > 100 µM | > 100 µM | > 100 µM | > 100 µM | > 100 µM | – | –
[RuCym(L1)Br] [Complex 2] | – | 4.64 ± 3.7 µM | – | – | – | 0.79 µM | type of inhibition of hlGST (horse liver GST (hlGST) [1]): reversible and competitive; type of inhibition of hrAChE [5]: reversible and competitive; type of inhibition of hGST [2]: reversible and competitive; Ki [2]: 4.08 µM; type of inhibition of eeAChE [3]: reversible and competitive; type of inhibition of hsBChE [4]: reversible and competitive
1-hydroxypyridine-2(1H)-thione [Complex L1] | – | – | – | – | – | – | IC50 (horse liver GST (hlGST) [6]): > 100 µM; IC50 [7]: > 100 µM; IC50 [8]: > 100 µM; IC50 [9]: > 100 µM
[RuCym(L1)I] [Complex 3] | – | 16 ± 3 µM | – | – | – | 1.6 µM | type of inhibition of hlGST (horse liver GST (hlGST) [1]): reversible and competitive; type of inhibition of hrAChE [5]: reversible and competitive; type of inhibition of hGST [2]: reversible and competitive; Ki [2]: 8.6 µM; type of inhibition of eeAChE [3]: reversible and competitive; type of inhibition of hsBChE [4]: reversible and competitive
O=[C]=[Ru-2]12(=[C]=O)([O][n+]3ccccc3[S]1)[O][n+]1ccccc1[S]2 [Complex 8, [Ru(L1)2(CO)2]] | – | 16.6 ± 1.4 µM | > 100 µM | > 100 µM | > 100 µM | 0.85 µM | type of inhibition of hlGST (horse liver GST (hlGST) [1]): reversible and competitive; type of inhibition of hGST [2]: reversible and competitive; Ki [2]: 9.65 µM
Cc1ccc(C(C)C)cc1.FC(F)(F)C1=[O+][Ru-]([P+]23CN4CN(CN(C4)C2)C3)[O]C(c2ccccc2Br)=C1.F[P-](F)(F)(F)(F)F [Complex 7, [RuCym(L2)pta]PF6] | > 100 µM | > 100 µM | > 100 µM | 19.2 ± 1.5 µM | > 100 µM | – | type of inhibition of hsBChE [4]: reversible and competitive; Ki ([4]; determined for compounds with IC50 < 33 μM, substrate 0.125, 0.25, 0.5 mM, read-out: Enzyme Inhibition hsBChE Ki): 9.26 µM
CCCCCCCCCCCCCCCCCC(=O)CC(=O)c1ccccc1 [Complex L3, 1-phenylicosane-1,3-dione, reference compound] | > 100 µM | > 100 µM | > 100 µM | > 100 µM | > 100 µM | – | –
tricarbonyldichlororuthenium(II) dimer [Ru(CO)3Cl2]2 [Precursor 10, reference compound] | 9.76 ± 0.4 µM | 97.7 ± 1 µM | – | – | – | 2.93 µM | inhibition of hGST (in words) [2]: only weakly
Cc1ccc(C(C)C)cc1.Cc1ccc(C(C)C)cc1.[Cl][Ru][Cl].[Cl][Ru][Cl] [Precursor 9, dichloro(p-cymene) ruthenium(II) dimer [Ru(p-cymene)Cl2]2] | – | – | – | – | – | – | IC50 [10]: > 100 µM; IC50 (horse liver GST (hlGST) [6]): > 100 µM; IC50 [7]: 32.7 ± 4.3 µM; IC50 [8]: > 100 µM; IC50 [9]: > 100 µM
[RuCym(L1)pta]PF6 [Complex 6] | > 100 µM | – | – | – | – | – | –
[RuCym(L1)Cl] [Complex 1] | – | – | – | – | – | – | IC50 (horse liver GST (hlGST) [6]): 2.26 ± 0.5 µM; Ki (horse liver GST (hlGST) [6]; read-out: Enzyme Inhibition hlGST Ki): 10 µM; IC50 [8]: 45 ± 5.2 µM
